# Results published in PMC10302187, “WssI from the Gram-negative bacterial cellulose synthase is an O-acetyltransferase that acts on cello-oligomers with several acetyl donor substrates” (The Journal of Biological Chemistry, 2023).
# Legend:
# [1] = molecular target: T1, PfWssI^ΔN (Pseudomonas fluorescens, UniProt Q8RSY4); format: biochemical; conditions: 1 h incubation with reagent (1 mM PMSF, 5 mM MSF, 5 mM EDTA, 0.1 mM E-64, 20 μM Pepstatin A); 6 mM pNP-Ac, pH 7
# T1 sequence (Q8RSY4 92-374): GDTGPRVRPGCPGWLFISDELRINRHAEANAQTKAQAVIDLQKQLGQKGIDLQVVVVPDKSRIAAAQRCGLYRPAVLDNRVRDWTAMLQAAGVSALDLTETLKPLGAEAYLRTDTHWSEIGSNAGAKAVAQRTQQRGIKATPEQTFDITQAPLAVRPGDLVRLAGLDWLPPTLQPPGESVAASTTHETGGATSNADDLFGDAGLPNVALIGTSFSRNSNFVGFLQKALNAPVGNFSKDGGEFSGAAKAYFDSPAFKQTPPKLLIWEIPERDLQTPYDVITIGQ
# Description: (§1) The enzymatic rate of the WssI^ΔN proteins was measured using chromogenic assays in a 50 mM sodium phosphate-buffered (pH 7) solution, with WssI^ΔN (3 μM unless specified otherwise) and were initiated by the addition of pNP-Ac to a final concentration of 6 mM (dissolved in 5% [v/v] ethanol). Assay samples and corresponding controls (i.e., containing no WssI^ΔN and/or substrate) were run in quadruplicate, and the progress of the reaction was monitored at 405 nm (Cytation5) for 30 min in 1 min intervals following a 5 s initial linear shake to mix contents thoroughly. These conditions were deemed standard assay conditions for subsequent trials except where modifications are noted. The activity assay to determine optimal pH and buffer type was performed with 2-(N-morpholino)ethanesulfonic acid over pH ranges of 5.5 to 6.5, sodium phosphate for pH 6.5 to 7.5, and Tris for the final range of 7.5 to 9.25. In addition, standard assay conditions were modified by incorporating various inhibitors and common reducing agents to determine effects on WssI^ΔN activity. […] To test the effects of the absence of DTT, trials were conducted where DTT was removed from all purification and dialysis buffers, unless mentioned otherwise. Data are either reported in specific activity as units of esterase activity (i.e., the amount of enzyme required to release 1 μmol of p-nitrophenol per min^−1 per mg of protein^−1) or as percent residual activity when compared with the WssI^ΔN controls (i.e., containing no inhibitors).
# [2] = molecular target: T2, AiWssI^ΔN (Achromobacter insuavis, UniProt A0A6J5I893); format: biochemical; conditions: 1 h incubation with reagent (1 mM PMSF, 5 mM MSF, 5 mM EDTA, 0.1 mM E-64, 20 μM Pepstatin A); 6 mM pNP-Ac, pH 7
# Description: as §1
# [3] = molecular target: serine/threonine phosphatase calcineurin; parameters: method as in PMID 9763224; conditions: p-nitrophenyl phosphate as a substrate; cited from earlier work
# [4] = molecular target: T2, AiWssI^ΔN; test: HTS MU-Ac fluorescence esterase dose-response assay; format: biochemical; conditions: MU-Ac as esterase substrate
# Description: Large-scale HTS was conducted at the SPARC BioCentre Drug Discovery (Hospital for Sick Children, Toronto, Canada) with a subset of the Chembridge DIVERset library collection (as well as 135 manually selected compounds based on success against other SGNH enzymes) in a 384-well format. The assay was performed in singlet during the primary screen of the entire compound list and in triplicate for a follow-up confirmatory screen. Reaction setups for both screens were conducted with 50 mM sodium phosphate buffer (pH 6.5), 3 μM AiWssI^ΔN and 0.5 mM MU-Ac (final concentration of 5% [v/v] dimethyl sulfoxide) using a Thermo MultiDrop Combi Reagent Dispenser. The reaction was initiated by the addition of 20 μM of the test compounds using an Echo 550 acoustic dispenser (Labcyte). Fluorescence was monitored with a SynergyNeo microplate reader (BioTek) using excitation and emission wavelengths of 365 and 450 nm, respectively, for approximately 45 min alongside appropriate negative and positive controls. […] The hits remaining after the primary and confirmatory screening were examined further to identify possible PAINS, which could result in false-positive results ([91]). Further refinement of the lead candidates was also conducted by assessing the fluorescence quenching potential of lead compound hits by assaying the quenching potential of different compound concentrations (10.1 μM and/or 50.5 μM) against the fluorescence of 4-methylumbeliferone (247 μM) to reveal any potential false positives that were not actually because of AiWssI^ΔN activity. All fluorescence readings were normalized using the following equation to determine the percentage of quenching ([92]): NormalizedFlouresence=Fobs−μFmin/μFmax−μFminx100% In the aforementioned formula, Fobs is the sample fluorescence value, μFmin is the mean fluorescence value of the negative controls, and μFmax is the mean fluorescence value of the positive controls.
# (§2) All inhibitor compounds for confirmatory assays were purchased from Enamine Ltd, with the exception of compound 1 (Santa Cruz Biotechnology, Inc), Compounds 2 and 7 (Molport via Maybridge Ltd and Vitas M Chemical Ltd, respectively) and compound 6 (Mcule, Inc). The dose–response curves were generated using either CDD Vault Analysis Software (Collaborative Drug Discovery, Inc) or GraphPad Prism, version 8.4.3. Inhibition constants (Ki) were calculated using the Cheng–Prusoff equation for competitive inhibition that is calculated using the KM of the uninhibited enzyme, the substrate concentration (S) at which the IC50 values were calculated, and the IC50 value of the inhibitor ([92]): Ki=IC50/(S/KM+1)
# [5] = molecular target: T2, AiWssI^ΔN; test: Follow-up standard MU-Ac esterase assay (dose-response); format: biochemical
# Description: The fluorescence substrate, MU-Ac, was also tested as a substrate of WssI^ΔN for its amenability to the planned high-throughput analyses (see later). Reaction setups were exactly the same as that for pNP-Ac, with the exceptions of the assay buffer (50 mM sodium phosphate, 150 mM NaCl, 1 mM DTT, pH 7), MU-Ac as the acetyl donor (final concentration of 0.5 mM along with 5% [v/v] dimethyl sulfoxide, as this was the solvent for MU-Ac), and the assay was performed in fluorescence compatible microplates (Grenier BioOne) and monitored with excitation and emission wavelengths of 365 and 450 nm, respectively for 60 min.
# as §2
# T2 sequence (A0A6J5I893 entry or part of it, stated change not applied): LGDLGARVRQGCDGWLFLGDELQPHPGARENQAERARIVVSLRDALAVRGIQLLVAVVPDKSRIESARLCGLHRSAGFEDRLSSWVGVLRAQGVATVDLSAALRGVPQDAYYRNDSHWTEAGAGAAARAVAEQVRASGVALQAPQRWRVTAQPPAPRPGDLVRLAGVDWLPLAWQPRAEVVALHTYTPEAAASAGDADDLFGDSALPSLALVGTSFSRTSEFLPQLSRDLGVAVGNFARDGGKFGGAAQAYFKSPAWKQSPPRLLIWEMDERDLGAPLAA
Compound,Residual activity PfWssI^ΔN [1],Residual activity AiWssI^ΔN [2],IC50 [3],IC50 [4],"IC50 ([5]; MU-Ac (0.5 mM) as esterase substrate, read-out: Second MU-Ac IC50)","Ki ([5]; MU-Ac as esterase substrate, Cheng-Prusoff, competitive inhibition, read-out: Second MU-Ac Ki)"
CC(C)C[C@H](NC(=O)[C@H]1O[C@@H]1C(=O)O)C(=O)NCCCCN=C(N)N [E-64],107.8 ± 10.8%,130.8 ± 9.1%,,,,
"N#CC(C#N)=C(N)/C(C#N)=C/c1ccc(O)cc1 [Compound 1, (3Z)-2-Amino-3-[(4-hydroxyphenyl)-methylidene]prop-1-ene-1,1,3-tricarbonitrile]",,,30 µM,10.1 µM,28.4 µM,15.1 µM
"CS(=O)(=O)F [MSF, methanesulfonyl fluoride]",112.1 ± 4.4%,95.0 ± 6.2%,,,,
